According to patent US5873359A, “Methods and devices for treating pulmonary vasoconstriction and asthma” (The General Hospital Corporation, priority 1994, dated 1999):

What was measured:
Assay type in all cases: in vivo, Hartley strain guinea pigs
normal bronchial tone = experiment: NO effects on normal bronchial tone; details: 300 ppm NO, without methacholine infusion (FIG. 8)
Method: (§1) Male Hartley strain guinea pigs (300-440g body wt) were anesthetized with α-chloralose (50 mg/kg) and urethane (500 mg/kg) (Drazen et al., J. Appl. Physiol. 48:613-618, 1980). A tracheostomy was performed, and the animals were intubated with a tubing adaptor (ID 1.65 mm) and ventilated with a small animal ventilator (Harvard Apparatus, a division of Ealing Scientific, Natick, Mass.) at 8 ml/kg and 60 breaths/min. A jugular vein was cannulated for intravenous administration of drugs. The chest was opened by bilateral excision of a portion of the ribs anteriorly so that the lungs were exposed to atmospheric pressure (Shore and Drazen, J. Appl. Physiol. 67:2504-2511, 1989). A positive end expiratory pressure of 3-4 cmH2 O was provided.
Guinea pigs were then placed inside a plethysmograph (Amdur and Mead, Am. J. Physiol. 192:363-368, 1958), that was connected to a large reservoir containing copper mesh to maintain the plethysmograph isothermal. Plethysmograph pressure was measured with a differential pressure transducer (Celesco, Canoga Park, Calif.); the opposite side of this transducer was connected to a similar reservoir. Pressure at the airway opening was measured from a side tap in the tracheal canula. Transpulmonary pressure was measured with a differential pressure transducer (Celesco) as the difference between airway opening pressure and the pressure inside the plethysmograph. […]

[1] = system: methacholine bronchoconstriction; experiment: Dose-response of intermittent NO inhalation during methacholine infusion
Method: as §1
(§2) Guinea pigs were then placed inside a plethysmograph (Amdur and Mead, Am. J. Physiol. 192:363-368, 1958), that was connected to a large reservoir containing copper mesh to maintain the plethysmograph isothermal. Plethysmograph pressure was measured with a differential pressure transducer (Celesco, Canoga Park, Calif.); the opposite side of this transducer was connected to a similar reservoir. Pressure at the airway opening was measured from a side tap in the tracheal canula. Transpulmonary pressure was measured with a differential pressure transducer (Celesco) as the difference between airway opening pressure and the pressure inside the plethysmograph. Flow was obtained by electrical differentiation of the volume (plethysmograph pressure) signal. Tidal volume was measured by recording the pressure changes in the body plethysmograph. Volume, flow, and transpulmonary pressure signals were recorded on a strip chart (General Scanning, Watertown, Mass.). Pulmonary resistance and dynamic compliance were calculated by a computer program according to the method of von Neergard and Wirz (Z. Klin. Med. 105:35-50, 1927; Z. Klin. Med. 105:52-82, 1927).
The apparatus and conditions used are diagrammed in FIG. 7. The inspired gas was a precise mixture of nitrogen and oxygen blended via a Y piece tube and immediately diluted with nitric oxide (NO) to produce the correct inspired concentration in a 5 liter gas mixture bag. With volumetrically calibrated flowmeters, varying quantities of NO mixed with N2 were substituted for pure N2 to obtain the desired No concentration at an inspired oxygen concentration (FIO2) of 0.30-0.32. The total inflow gas rate was maintained at 2.5 l/min. The gas mixture was then sent via a 3 cm ID tube filled with 90 ml of soda lime to scavenge nitrogen dioxide (Stavert and Lehnert, Inhal. Toxicol. 2:53-67, 1990), then through a filter before the ventilator. Just after the ventilator inflow tube, a vacuum was adjusted to maintain the gas mixture bag nearly empty and continuously drive fresh gas into the ventilator circuit. The expiratory gas from the ventilator was scavenged with a vacuum and set up to maintain a positive end expiratory pressure of 3-4 cm H2 O. NO was obtained from Air Products and Chemicals, Inc. (Allentown, Pa.) as a mixture of 1,034 ppm NO in pure nitrogen. A chemiluminescence NO/NOx analysis (Fontijin et al., Anal. Chem. 42:575-579, 1970) was performed before and after the soda lime filled tube, and just before the inspiratory valve of the ventilator (see FIG. 7) to assess the nitrogen dioxide concentration and adjust the flowmeters to provide the different levels of NO concentration.
ii. Dose-response study of intermittent NO inhalation during methacholine infusion. After baseline measurements, the same guinea pigs were given an intravenous infusion of a potent bronchoconstrictor, methacholine, at a rate of 2.5-7.5 μg/kg/min in order to reach a medium level of bronchoconstriction (3 to 4 fold the baseline lung resistance). After a stable period, each animal was ventilated with a series of gas mixtures of 5, 10, 25, 50, 100 and 300 ppm NO for 10 minutes at constant FIO2 (0.30-0.32). […]

[2] = system: methacholine bronchoconstriction; experiment: Tolerance to 1 hour of NO inhalation during methacholine infusion
Method: as §1
as §2, with “Flow was obtained by electrical differentiation of the volume (plethysmograph pressure) signal.” left out
The apparatus and conditions used are diagrammed in FIG. 7. […] With volumetrically calibrated flowmeters, varying quantities of NO mixed with N2 were substituted for pure N2 to obtain the desired No concentration at an inspired oxygen concentration (FIO2) of 0.30-0.32. […]

[3] = NO-containing gas mixtures (FIGS. 9-12)

SMILES: [N]=O [NO, nitric oxide]
- baseline bronchomotor tone (normal bronchial tone): decreased the baseline bronchomotor tone
- bronchodilation ([1]; 5 ppm NO): produced bronchodilation
- airway resistance ([1]; 100 or 300 ppm NO): greater and more rapid reduction of airway resistance
- reversal of methacholine bronchoconstriction ([1]; 300 ppm NO): Complete reversal of methacholine bronchoconstriction
- lung compliance [1, 3]: increase of lung compliance
- lung resistance [1, 3]: consistent, rapid and profound reduction of lung resistance
- onset of dilation ([1]; after inhalation): within a few seconds
- reversal of methacholine bronchoconstriction ([1]; nitric oxide inhalation): reversed the profound bronchoconstriction
- tolerance ([2]; 100 ppm NO, one hour): no tolerance
- airway resistance ([2]; 100 ppm NO, one hour (FIG. 13)): effectively and stably reduced the airway resistance for one hour
- methemoglobin levels ([2]; after one hour of breathing 100 ppm NO): below 5%
